Laboratory results: US20240074473A1, “METHOD FOR INDUCING HYPERTROPHIC MUSCLE FIBERS FOR INDUSTRIAL MEAT PRODUCTION” (Yeda Research and Development Co. Ltd., priority 2021, published 2024)
Counter-ions that a name gives are not always drawn. Like-named read-outs stand apart in the source and are kept apart here. Values belong to the compound of their own block, whether it stands above or below them.

Assays:
[1] = cited from earlier work
[2] = Risk categorization of cell culture media ingredients
Excerpt: Category 1: These cell culture media components are food ingredients/additives that are GRAS or permitted by federal regulation without limitation on use. Exemplary compounds in this category include innocuous ingredients such as sugars, pH buffers, water soluble vitamins, and common antioxidants such as tocopherols.
Category 2: These cell culture media components are common dietary nutrients and are anticipated to have GRAS status for food use or be permitted by regulation for addition to food. Examples of such compounds include most of the inorganic salts and macronutrients that are present within the cell culture media. […] Majority of nutrients present within the poultry cell-based meat may be readily measured using common validated methods for food composition testing. Batch analyses of multiple lots of the finished product may be obtained to validate the above assumptions. In some instances, consideration of established safe levels (e.g., ADI, UL) derived from a relevant authoritative body (e.g., U.S. FDA, EFSA, JECFA, FSANZ, U.S. EPA) may be leveraged to support safety. If comparisons of anticipated dietary intakes relative to an authoritative reference intake value is used, consideration of additive intakes from all dietary sources may be considered. In the absence of an authoritative reference intake value, published NOAELs from animal toxicology studies may be used to evaluate safety using standard scientific procedures for food safety evaluation. A margin of exposure (MoE) of 100-fold or greater between the NOAEL and estimated dietary intakes from food exposures is typically considered adequate to support safety. in situations where the MoE is <100-fold, additional measures for further reduction of the media component may be necessary, or further characterization of intraspecies/interspecies differences in metabolism may be necessary. These situations also require careful consideration of the regulatory status on a case-by basis (e.g., premarket approval as a food additive or GRAS evaluation required).
For example, situations where the compound is not detectable in finished product or is present at equivalent levels in comparator foods, compounds that are thermo-labile and will be digested during cooking, and/or compounds that are expected to be digested to innocuous compounds following ingestion. Examples of compounds meeting the aforementioned conditions would include recombinant growth factors and serum components. For Category 3 substances a final consideration in the safety assessment process may involve hazard characterization of the potential for a substance to produce toxic biological effects outside of the endpoints measured in a sub-chronic rat toxicity study. Substances with biological activity may require additional hazard characterization related to reproductive and developmental toxicity, or immunotoxicity. Considerations for allergenicity, biological effects in humans (e.g., effects on blood pressure), and synergistic effects with other media components also may be evaluated. […] Examples of category 3 components include recombinant proteins and animal serum.

[3] = Maximum estimated dietary exposure to media ingredients per 100 g serving; conditions: assumption of complete transfer of media components to the finished product on a wt/wt basis
primary mouse myoblasts [4] = experiment: MYOG positive nuclei in primary mouse myoblasts (immunofluorescence); assay type: cell-based; conditions: co-treatment with 1 μM ERKi, 24 hrs; HX531 20 uM, Dantrolene 50 uM, BAPTA-AM 10 uM, KN93 5 uM
Procedure: (§1) Isolation of and treatment of primary myoblasts. Primary mouse myoblasts were isolated from gastrocnemius muscle using trypsin-tissue dissociation. Briefly, muscle tissues were incubated in Trypsin B (0.25%, Biological Industries) and subjected to mechanical dissociation with a serological pipet. Supernatants were strained and centrifuged. Pellets were grown resuspended in BioAmf-2 media (Biological Industries, Israel) and plated on 10% Matrigel (BD Biosciences)-coated plates at 37° and 5% CO2. For all in vitro experiments, proliferation medium was Bio-Amf2 (Biological Industries, Israel) and Differentiation medium (DM) was DMEM 2% Horse Serum (HS) with 1% Pen/Strep. For fusion assays, cells were trypsinized with Trypsin C (0.05%, Biological Industries) and subjected to two rounds of preplating on uncoated plates to reduce the number of fibroblasts. Cells were plated at a density of 8×10^3 per well in 10% Matrigel-coated 96-well plates in proliferation medium for 24 hours. The following day, proliferation media was replaced either with proliferation media or with DM containing DMSO (Ctrl) or 1 μM ERK1/2 inhibitor (ERKi; SCH772984, Cayman Chemicals), […] RXR antagonist (RXRi; HX-531, Cayman Chemicals), […] Ryanodine receptor antagonist (RYRi; Dantrolene, Cayman Chemicals), 5 μM CaMKII inhibitor (CaMKIIi; KN93, Cayman Chemicals), or with DM for controls.
(§2) Immunofluorescence staining. First passage primary myoblasts isolated from various strains (indicated in figure legends) were plated in 96-well plates or chamber slides and treated as previously described. The cells were fixed with ice cold 4% PFA in PBS for 10 minutes, permeabilized with 0.5% Triton X-100 in PBS for 6 minutes, and blocked in PBS with 0.025% tween, 10% normal horse serum and 10% normal goat serum for 1 hour at room temperature. Primary antibody incubation was done in blocking buffer overnight at 4 degrees, with the following antibodies: Myosin Heavy Chain (MyHC, MF20, DSHB hybridoma supernatant 1:10, or MY-32 ABCAM ab51263 1:400), Myogenin (MYOG sc-13137 SCBT 1:200), pHistone 3 (PH3, ab47297 ABCAM 1:1000), Ki-67 (Cell Marque #275R), RYR (ab2868 ABCAM 1:100), and pCaMKII (SIGMA SAB4504356 1:100). Cells were washed 3 times in PBS with 0.025% tween and then incubated with appropriate secondary antibodies in PBS 1 hour. Where indicated, nuclei were either labeled with DAPI (SIGMA D9542, 5 ug/ml) or Hoechst 33342 (Thermo scientific #62249, 1:2000). Fixed cells at 24 hours post treatment with indicated inhibitors were imaged using the Nikon Eclipse Ti2 microscope (further described in microscopy section). All analysis was performed on at least 1000 nuclei. For fixed cells following the timecourse with ERKi or DM (FIG. 1B), images were captured with an inverted Olympus IX83 microscope (further details in microscopy section). All imaging analysis were performed on at least 1000 cells.

primary mouse myoblasts [5] = experiment: Fusion index of primary mouse myoblasts (MyHC immunostaining); assay type: cell-based
Procedure: as §1
as §2, with “For fixed cells following the timecourse with ERKi or DM (FIG. 1B), images were captured with an inverted Olympus IX83 microscope (further details in microscopy section). All imaging analysis were performed on at least 1000 cells.” left out
Quantification of fusion index. Following immunostaining and imaging, a fusion index was quantified by manually identifying nuclei found in a MyHC positive cell with at least 2 nuclei. Then the values were expressed as a percentage of the total nuclei per field. Briefly, in Figures where fusion index is stratified into subgroups of fiber size, the nuclei number in MyHC positive cell was manually quantified in a given field and stratified into groups of mononucleated, bi-nucleated myotubes, myotubes with 3-10 nuclei and myotubes with greater than 10 nuclei. […] Fields were analyzed hourly, and nuclei per cell was quantified and stratified into mononucleated, bi-nucleated, tri-nucleated and cells with ≥4 nuclei.

primary mouse myoblasts [6] = experiment: qRT-PCR gene expression in primary mouse myoblasts; assay type: cell-based; conditions: co-treatment with ERKi and RXRi, 24 hours post treatment
Procedure: Quantitative real-time PCR (qRT-PCR). Total RNA was isolated using Tri-Reagent (SIGMA) according to the manufacturer's instructions. cDNA was synthesized with the High Capacity cDNA Reverse Transcription Kit (Applied Biosystems according to the manufacturer's instructions. qRT-PCR was performed with SYBR green PCR Master Mix (Applied Biosystems) using the StepOnePlus Real-time PCR system (Applied Biosystems). Values for specific genes were normalize to either Gapdh or Hprt housekeeping control as indicated in Figure legend. Expression was calculated using the ddCT method.
First passage primary mouse derived myoblast were seeded in proliferation media, in equal number in 12-well tissue culture plates that were precoated with 10% Matrigel solution. Following 24 hours to allow for complete attachment, culture media was washed and replaced either with fresh proliferation media (PM), PM supplemented with 1 uM SCH 772984 (ERKi) or differentiation media (DM). After 24 hrs, cells were lysed and RNA was collected. Gene expression analysis was carried out using SYBR green qRT-PCR analysis.

[7] = human dietary intake, niacinamide and magnesium sulfate: supplements
[8] = cell culture media ingredient used during meat production

Compound: O.O.O.O.O.O.O.O=S(=O)([O-])[O-].[Fe+2] [FERROUS SULFATE-7H2O]
Safe Reference Level for Human Dietary Intake: Iron UL ([1]; human dietary intake, as iron): Iron UL = 40 to 45 mg
Risk Assessment Category [2]: 2
Maximum Estimated Exposure per 100 g serving [3]: 2.5 mg

Maximum Estimated Exposure per 100 g serving [3]: 100 mg
Compound: CALCIUM D-PANTOTHENATE
Safe Reference Level for Human Dietary Intake (UL) given as symbol ([1]; human dietary intake): UL = NS

Risk Assessment Category [2]: 1
Maximum Estimated Exposure per 100 g serving [3]: 25 mg
Compound: NC(=O)c1cccnc1 [NIACINAMIDE (NICOTINAMIDE), NIACINAMIDE]
Safe Reference Level for Human Dietary Intake: UL (Tolerable Upper Limit) [1, 7]: UL = 10 to 35 mg

Compound: O=C1CN(/N=C/c2ccc(-c3ccc([N+](=O)[O-])cc3)o2)C(O)=N1 [Dantrolene]
Differentiation (percent of MYOG positive nuclei) on co-treatment with ERKi (primary mouse myoblasts [4]): without affecting differentiation
Reduction of ERKi-induced fusion (primary mouse myoblasts [5]; co-treatment with ERKi and 50 uM Dantrolene): 60%

Compound: CC(=O)OCOC(=O)CN(CC(=O)OCOC(C)=O)c1ccccc1OCCOc1ccccc1N(CC(=O)OCOC(C)=O)CC(=O)OCOC(C)=O [BAPTA-AM]
Differentiation (percent of MYOG positive nuclei) on co-treatment with ERKi (primary mouse myoblasts [4]): without affecting early differentiation
Reduction of ERKi-induced fusion (primary mouse myoblasts [5]; co-treatment with ERKi and BAPTA-AM (10 uM per FIG. 2B)): 81%

Compound: O.O.O.O.O.O.O.O=S(=O)([O-])[O-].[Zn+2] [ZINC SULFATE-7H20]
Safe Reference Level for Human Dietary Intake: UL (Tolerable Upper Limit) ([1]; human dietary intake): UL = 5 to 40 mg/day
Risk Assessment Category [2]: 1
Maximum Estimated Exposure per 100 g serving [3]: 15 mg

Compound: [Cl-].[Cl-].[Mg+2] [MAGNESIUM CHLORIDE (ANHY)]
Safe Reference Level for Human Dietary Intake (kind of level not given) ([1]; human dietary intake): 65 to 350 mg
Risk Assessment Category [2, 8]: 1
Maximum Estimated Exposure per 100 g serving [3]: 170 mg

Compound: CN1c2ccc([N+](=O)[O-])cc2N=C(c2ccc(C(=O)O)cc2)c2cc3c(cc21)C(C)(C)CCC3(C)C [HX531]
Differentiation (percent of MYOG positive nuclei) on co-treatment with ERKi (primary mouse myoblasts [4]): without affecting differentiation
Suppression of ERKi-induced fusion (primary mouse myoblasts [5]; co-treatment with ERKi and 20 uM HX531, 24 hours): 47%
Ryr1 and Ryr3 mRNA expression (primary mouse myoblasts [6]): downregulation

Compound: COPPER SULFATE-PENTAHYDRATE
Safe Reference Level for Human Dietary Intake (kind of level not given) ([1]; human dietary intake): 1 to 10 mg
Maximum Estimated Exposure per 100 g serving [3]: 3 mg

Compound: O=S(=O)([O-])[O-].[Mg+2] [MAGNESIUM SULFATE (ANHY)]
Safe Reference Level for Human Dietary Intake: UL (Tolerable Upper Limit) [1, 7]: UL = 65 to 350 mg
Risk Assessment Category [2, 8]: 1
Maximum Estimated Exposure per 100 g serving [3]: 493 mg

Risk Assessment Category [2]: 2
Maximum Estimated Exposure per 100 g serving [3]: 1 mg
Compound: CCCCC/C=C\C/C=C\CCCCCCCC(=O)O [LINOLEIC ACID]
Safe Reference Level for Human Dietary Intake: AI (Adequate Intake) ([1]; human dietary intake): AI = 7 to 12 g/d

Risk Assessment Category [2]: 1
Maximum Estimated Exposure per 100 g serving [3]: 0.024 mg
Compound: C=C1CC[C@H](O)C/C1=C/C=C1\CCC[C@]2(C)[C@@H]([C@H](C)/C=C/[C@H](C)C(C)C)CC[C@@H]12 [VITAMIN D2 (ERGOCALCIFEROL), ERGOCALCIFEROL]
Safe Reference Level for Human Dietary Intake: UL (Tolerable Upper Limit) ([1]; human dietary intake): UL = 100 ug/d

Risk Assessment Category [2, 8]: 2
Maximum Estimated Exposure per 100 g serving [3]: 4 mg
Compound: CCCCCCCC/C=C\CCCCCCCC(=O)OCCOCC(OCCO)C1OCC(OCCO)C1OCCO (stereo not drawn) [TWEEN 80]
Safe Reference Level for Human Dietary Intake: ADI (Acceptable Daily Intake) ([1]; human dietary intake): ADI = 10 mg/kg bw/d

Compound: Cc1c(C)c2c(c(C)c1O)CC[C@@](C)(CCC[C@H](C)CCC[C@H](C)CCCC(C)C)O2 [D-ALPHA-TOCOPHEROL]
Safe Reference Level for Human Dietary Intake: UL (Tolerable Upper Limit) ([1]; human dietary intake): UL = 1000 mg/d
Risk Assessment Category [2, 8]: 1
Maximum Estimated Exposure per 100 g serving [3]: 1.6 mg

Compound: CC(=O)Oc1c(C)c(C)c2c(c1C)CCC(C)(CCCC(C)CCCC(C)CCCC(C)C)O2 (racemic) [DL-ALPHA-TOCOPHEROL ACETATE]
Safe Reference Level for Human Dietary Intake: UL (Tolerable Upper Limit) ([1]; human dietary intake): UL = 1000 mg/d
Risk Assessment Category [2, 8]: 1
Maximum Estimated Exposure per 100 g serving [3]: 8 mg

Compound: O.O=S(=O)([O-])[O-].[Mn+2] [MANGANESE SULFATE H2O]
Safe Reference Level for Human Dietary Intake (kind of level not given) ([1]; human dietary intake): 0.002 to 0.011 g/day
Risk Assessment Category [2, 8]: 1
Maximum Estimated Exposure per 100 g serving [3]: 0.003 mg

Compound: [Cl-].[Na+] [SODIUM CHLORIDE]
Safe Reference Level for Human Dietary Intake (kind of level not given) ([1]; human dietary intake): 2.3 g/day

Compound: [Ca+2].[Cl-].[Cl-] [CALCIUM CHLORIDE (ANHY)]
Safe Reference Level for Human Dietary Intake (kind of level not given) ([1]; human dietary intake): 1 to 3 g/day
Risk Assessment Category [2, 8]: 1
Maximum Estimated Exposure per 100 g serving [3]: 760 mg

Compound: [Cl-].[K+] [POTASSIUM CHLORIDE]
Safe Reference Level for Human Dietary Intake (UL) given as symbol ([1]; human dietary intake): UL = NS
Risk Assessment Category [2, 8]: 1
Maximum Estimated Exposure per 100 g serving [3]: 4000 mg

Risk Assessment Category [2, 8]: 3
Maximum Estimated Exposure per 100 g serving [3]: 1000 mg
Compound: CC(=O)C(=O)[O-].[Na+] [SODIUM PYRUVATE]
Safe Reference Level for Human Dietary Intake, in words ([1]; dietary intakes within the range of OSL values reported in human investigations): Dietary intakes within

Risk Assessment Category [2]: 1
Maximum Estimated Exposure per 100 g serving [3]: 18 mg
Compound: Cc1ncc(C[n+]2csc(CCO)c2C)c(N)n1 [THIAMINE-HCL]
Safe Reference Level for Human Dietary Intake (UL) given as symbol ([1]; human dietary intake): UL = NS
